Laboratory results taken from paper PMC4904262 (ACS Medicinal Chemistry Letters, 2016).

Tests used:
[1] = system: Caco-2; conditions: human
[2] = in vitro; conditions: mouse, microsomes
[3] = in vitro; conditions: rat, microsomes
[4] = in vitro; conditions: human, microsomes
[5] = mouse
[6] = molecular target: T1, aldehyde oxidase (Homo sapiens, UniProt Q06278); conditions: for % of parent compd remaining after 45 min: human, cytosol, 0.75 h, 1 µM
[7] = system: WNT signaling; assay: cells; conditions: 7dF3, read-out: 7dF3 IC50
[8] = molecular target: T1, aldehyde oxidase; assay: in vitro; conditions: cytosol

T1 sequence (Q06278 whole entry): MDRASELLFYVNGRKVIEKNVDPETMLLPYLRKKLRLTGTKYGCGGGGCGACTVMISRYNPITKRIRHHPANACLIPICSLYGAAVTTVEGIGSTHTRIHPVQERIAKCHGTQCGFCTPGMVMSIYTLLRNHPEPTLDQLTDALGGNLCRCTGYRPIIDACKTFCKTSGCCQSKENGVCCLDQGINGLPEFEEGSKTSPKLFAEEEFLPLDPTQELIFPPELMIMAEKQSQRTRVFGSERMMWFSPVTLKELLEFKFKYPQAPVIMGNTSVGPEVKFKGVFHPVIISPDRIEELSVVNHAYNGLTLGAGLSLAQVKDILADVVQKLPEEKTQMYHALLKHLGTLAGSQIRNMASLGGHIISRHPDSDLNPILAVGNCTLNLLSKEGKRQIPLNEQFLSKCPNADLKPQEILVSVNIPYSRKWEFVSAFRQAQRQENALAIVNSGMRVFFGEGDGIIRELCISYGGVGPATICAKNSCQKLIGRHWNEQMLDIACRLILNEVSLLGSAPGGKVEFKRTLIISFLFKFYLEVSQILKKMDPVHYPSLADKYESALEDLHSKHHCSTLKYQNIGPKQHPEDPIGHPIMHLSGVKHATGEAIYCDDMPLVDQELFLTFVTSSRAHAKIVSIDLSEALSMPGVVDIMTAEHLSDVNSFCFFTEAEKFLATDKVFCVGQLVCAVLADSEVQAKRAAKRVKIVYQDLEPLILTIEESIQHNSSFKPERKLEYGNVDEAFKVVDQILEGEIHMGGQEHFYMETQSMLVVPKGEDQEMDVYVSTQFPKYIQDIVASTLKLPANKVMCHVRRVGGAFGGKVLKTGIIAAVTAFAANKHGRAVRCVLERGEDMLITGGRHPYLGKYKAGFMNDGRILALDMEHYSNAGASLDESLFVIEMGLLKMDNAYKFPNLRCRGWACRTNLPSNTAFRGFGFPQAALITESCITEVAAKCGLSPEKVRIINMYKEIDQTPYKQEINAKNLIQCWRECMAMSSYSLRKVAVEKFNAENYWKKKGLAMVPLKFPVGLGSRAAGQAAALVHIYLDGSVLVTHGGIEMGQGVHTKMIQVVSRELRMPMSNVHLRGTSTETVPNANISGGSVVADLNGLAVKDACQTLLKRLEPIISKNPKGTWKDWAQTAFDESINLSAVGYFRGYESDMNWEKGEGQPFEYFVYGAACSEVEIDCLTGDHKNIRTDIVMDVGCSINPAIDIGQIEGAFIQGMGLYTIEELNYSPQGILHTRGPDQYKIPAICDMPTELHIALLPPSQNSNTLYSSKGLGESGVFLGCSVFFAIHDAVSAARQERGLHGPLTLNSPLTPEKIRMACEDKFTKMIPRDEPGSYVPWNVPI

SMILES	microsomal CLint at 1 µM [2] [µL/min/mg]	microsomal CLint at 1 µM [3] [µL/min/mg]	microsomal CLint at 1 µM [4] [µL/min/mg]	% of parent compd remaining after 45 min [6] [%]	other results
Cn1cc(-c2ccc(-c3cnc(N)c4ccc(C(=O)N5CC(F)(F)C5)nc34)cc2)cn1 [Compound 54]	107	19	25		Caco-2 ER [1]: 1.8; Caco-2 PappA-B [1]: 23.9 × 10^–6 cm/s
Cn1cc(-c2ccc(-c3cncc4ccc(C(=O)N5CCNCC5)nc34)cc2)cn1 [Compound 17]	15	525	36		Vss ([5]; Balb/C, in vivo): 5.8 L/kg; in vivo clearance [5]: exceeded liver blood flow
Cn1cc(-c2ccc(-c3cnc(N)c4ccc(C(=O)N5CC(F)(F)C5)cc34)cc2)cn1 [Compound 61]	78	17	123		Caco-2 ER [1]: 3.8; Caco-2 PappA-B [1]: 39.7 × 10^–6 cm/s
Cn1cc(-c2ccc(-c3cnc(N)c4ccc(C(=O)N5CCC5)nc34)cc2)cn1 [Compound 52]	61	38	24		Caco-2 ER [1]: 5.3; Caco-2 PappA-B [1]: 42.6 × 10^–6 cm/s
COC1CN(C(=O)c2ccc3cncc(-c4ccc(-c5cnn(CC(C)(C)O)c5)cc4)c3n2)C1 [Compound 38]				0	IC50 [7]: 2.8 ± 0.7 nM
Cn1cc(-c2ccc(-c3cncc4ccc(C(=O)N5CCOCC5)nc34)cc2)cn1 [Compound 16]	83	23	41		
COC1CN(C(=O)c2ccc3cncc(-c4ccc(-c5cnn(CC(C)(C)O)c5)cc4)c3c2)C1 [Compound 41]				0	IC50 [7]: 13.2 ± 15.2 nM
Cn1cc(-c2ccc(-c3cncc4ccc(-c5ncco5)nc34)cc2)cn1 [Compound 25]	200	796	48	0	CLint scaled at 1 µM [8]: 367 mL/min/kg
Cn1cc(-c2ccc(-c3cncc4ccc(-c5ccn(C)n5)nc34)cc2)cn1 [Compound 24]	299	212	45		
COC1CN(C(=O)c2ccc3cncc(-c4ccc5nn(CC(C)(C)O)cc5c4)c3c2)C1 [Compound 44]				0	IC50 [7]: 92.7 ± 41.1 nM
Cn1cc(-c2ccc(-c3cnc(N)c4ccc(C(=O)N5CC(C)(F)C5)nc34)cc2)cn1 [Compound 55]	125	24	20		Caco-2 ER [1]: 3.4; Caco-2 PappA-B [1]: 27.6 × 10^–6 cm/s
Cn1cc(-c2ccc(-c3cnc(N)c4ccc(C(=O)N5CCCC5)nc34)cc2)cn1 [Compound 56]	81	63	30		Caco-2 ER [1]: 5.0; Caco-2 PappA-B [1]: 30 × 10^–6 cm/s
Cn1cc(-c2ccc(-c3cncc4ccc(-c5ncco5)cc34)cc2)cn1 [Compound 32]	129	96	81	3	
CNC(=O)c1ccc2cncc(-c3ccc(-c4cnn(C)c4)cc3)c2c1 [Compound 27]	275		27	0	
Cn1cc(-c2ccc(-c3cncc4ccc(N5CCOC5=O)cc34)cc2)cn1 [Compound 34]	380	102	66		AO substrate (Enzyme assay) [6]: Yes
Cn1cc(-c2ccc(-c3cnc(N)c4ccc(C(=O)NC5CC5)cc34)cc2)cn1 [Compound 64]	39	22	16		Caco-2 ER [1]: 13.2; Caco-2 PappA-B [1]: 32.5 × 10^–6 cm/s; AO substrate (Enzyme assay) [6]: No
Cn1cc(-c2ccc(-c3cncc4ccc(C(=O)N5CCCC5)nc34)cc2)cn1 [Compound 15]	321	55	38		
COC1CN(C(=O)c2ccc3cncc(-c4ccc5nn(CC(C)(C)O)cc5c4)c3n2)C1 [Compound 40]				0	IC50 [7]: 17.9 ± 5.5 nM
Cn1cc(-c2ccc(-c3cncc4ccc(C(=O)NC5CC5)cc34)cc2)cn1 [Compound 28]	141	98	31		AO substrate (Enzyme assay) [6]: Yes
Cn1cc(-c2ccc(-c3cnc(N)c4ccc(C(=O)N5CCC5)cc34)cc2)cn1 [Compound 58]	23	11			Caco-2 ER [1]: 5.5; Caco-2 PappA-B [1]: 27.2 × 10^–6 cm/s; microsomal CLint [4]: < 10 µL/min/mg
COC1(C)CN(C(=O)c2ccc3c(N)ncc(-c4ccc(-c5cnn(C)c5)cc4)c3n2)C1 [Compound 53]	48				Caco-2 ER [1]: 5.8; Caco-2 PappA-B [1]: 40.1 × 10^–6 cm/s; microsomal CLint [3]: 25 µL/min/mg; microsomal CLint [4]: 25 µL/min/mg
Cn1cc(-c2ccc(-c3cnc(N)c4ccc(C(=O)N5CCOCC5)nc34)cc2)cn1 [Compound 50]					Caco-2 ER [1]: 9; Caco-2 PappA-B [1]: 34.0 × 10^–6 cm/s

SMILES	microsomal CLint at 1 µM [2] [µL/min/mg]	microsomal CLint at 1 µM [3] [µL/min/mg]	microsomal CLint at 1 µM [4] [µL/min/mg]	% of parent compd remaining after 45 min [6] [%]	other results
COC1CN(C(=O)c2ccc3cncc(-c4ccc(-c5cnn(C)c5)cc4)c3n2)C1 [Compound 13]	95	327	35	0	AO substrate (Enzyme assay) [6]: Yes
COC1CN(C(=O)c2ccc3cncc(-c4ccc5c(cnn5CC(C)(C)O)c4)c3c2)C1 [Compound 43]				2	IC50 [7]: 921 ± 148 nM
Cn1cc(-c2ccc(-c3cncc4ccc(-c5ccnn5C)nc34)cc2)cn1 [Compound 23]	310	761	144		
CC(=O)Nc1ccc2cncc(-c3ccc(-c4cnn(C)c4)cc3)c2c1 [Compound 31]	200	90	26		AO substrate (Enzyme assay) [6]: Yes
Cn1cc(-c2ccc(-c3cncc4ccc(C(=O)N5CCC5)nc34)cc2)cn1 [Compound 12]	143	85	38		
Cn1cc(-c2ccc(-c3cncc4ccc(C(=O)N5CC(F)(F)C5)nc34)cc2)cn1 [Compound 14]	160	317	111		
Cn1cc(-c2ccc(-c3cncc4ccc(-c5nccn5C)cc34)cc2)cn1 [Compound 33]	570	307	398		
CNC(=O)c1ccc2cncc(-c3ccc4c(cnn4C)c3)c2n1 [Compound 5]	444	699	116		
COC1CN(C(=O)c2ccc3cncc(-c4ccc(-c5cnn(C)c5)cc4)c3c2)C1 [Compound 29]	403	337	56	1	AO substrate (Enzyme assay) [6]: Yes
COC1(C)CN(C(=O)c2ccc3c(N)ncc(-c4ccc(-c5cnn(C)c5)cc4)c3c2)C1 [Compound 60]	26	17	64		Caco-2 ER [1]: 7.2; Caco-2 PappA-B [1]: 25.2 × 10^–6 cm/s
CNC(=O)c1ccc2c(OC)ncc(-c3ccc4c(c3)CS(=O)(=O)N4)c2n1 [Compound 45]					IC50 [7]: > 30000 nM
COC1CN(C(=O)c2ccc3cncc(-c4ccc5c(cnn5CC(C)(C)O)c4)c3n2)C1 [Compound 39]				0	IC50 [7]: 225 ± 76 nM
CC(C)(O)Cn1cc(-c2ccc(-c3cncc4ccc(C(N)=O)cc34)cc2)cn1 [Compound 42]				7	IC50 [7]: 0.6 ± 0.2 nM
Cn1cc(-c2ccc(-c3cncc4ccc(C(=O)N5CC(F)(F)C5)cc34)cc2)cn1 [Compound 30]	321	207	470	0	
CNC(=O)c1ccc2cncc(-c3ccc(-c4cnn(C)c4)cc3)c2n1 [Compound 4]	172		40		microsomal CLint [3]: > 1000 µL/min/mg
Cn1cc(-c2ccc(-c3cnc(N)c4ccc(N5CCOC5=O)cc34)cc2)cn1 [Compound 65]	66	19	14		Caco-2 ER [1]: 16.2; Caco-2 PappA-B [1]: 20.6 × 10^–6 cm/s; AO substrate (Enzyme assay) [6]: No
Cn1cc(-c2ccc(-c3cnc(N)c4ccc(C(=O)N5CC(C)(F)C5)cc34)cc2)cn1 [Compound 62]	43	28	76		Caco-2 ER [1]: 3.4; Caco-2 PappA-B [1]: 25.8 × 10^–6 cm/s
Cn1cc(-c2ccc(-c3cncc4ccc(C(N)=O)nc34)cc2)cn1 [Compound 9]	155		34		
Cn1cc(-c2ccc(-c3cncc4ccc(N5CCNC5=O)nc34)cc2)cn1 [Compound 20]	246	323	64		
CNC(=O)c1ccc2cncc(-c3ccc4cnn(C)c4c3)c2n1 [Compound 6]	333	178	32		
CNC(=O)c1ccc2c(N)ncc(-c3ccc4c(c3)CS(=O)(=O)N4)c2n1 [Compound 37]				100	IC50 [7]: 9600 ± 2430 nM
Cn1cc(-c2ccc(-c3cncc4ccc(-c5nccn5C)nc34)cc2)cn1 [Compound 26]	661		335		AO substrate (Enzyme assay) [6]: Yes; microsomal CLint [3]: > 1000 µL/min/mg; CLint scaled at 1 µM [8]: > 1000 mL/min/kg
